Assays:
Test in all cases: relative viability (nuclei count vs DMSO), 5 days (fraction); higher = more cells survive
NCI-H1944 = system: NCI-H1944
Summary of the method: (§1)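 For relative viability, nuclei counts in treated wells were divided by those in vehicle wells. Lung cancer cell lines had been pin-tool dosed in 1536-well plates the day after seeding and cultured for 5 days, then fixed and stained in one step (final 0.05% Triton X-100, 1% formaldehyde, 1 ug/ml Hoechst) and imaged at 4×. Doses were one drug alone or a fixed anchor-drug dose plus five library-drug doses (not always all listed) in √10 steps, and values are duplicate-plate medians.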

NCI-H1975 = system: NCI-H1975
Summary of the method: as §1

NCI-H2087 = system: NCI-H2087
Summary of the method: as §1

NCI-H2342 = system: NCI-H2342
Summary of the method: as §1

NCI-H358 = system: NCI-H358
Summary of the method: as §1

NCI-H596 = system: NCI-H596
Summary of the method: as §1

NCI-H650 = system: NCI-H650
Summary of the method: as §1

NCI-H661 = system: NCI-H661
Summary of the method: as §1

NCI-H838 = system: NCI-H838
Summary of the method: as §1

PC-3 [JPC-3] = system: PC-3 [JPC-3]
Summary of the method: as §1

SK-MES-1 = system: SK-MES-1
Summary of the method: as §1

Cc1sc2c(c1C)C(c1ccc(Cl)cc1)=N[C@@H](CC(=O)OC(C)(C)C)c1nnc(C)n1-2 [JQ1] + O=C(c1cc(Cc2n[nH]c(=O)c3ccccc23)ccc1F)N1CCN(C(=O)C2CC2)CC1 [Olaparib] (partner 8 µM)
relative viability (NCI-H1944; first compound 0.04 µM): 0.405 | relative viability (NCI-H1944; first compound 0.1265 µM): 0.391 | relative viability (NCI-H1944; first compound 0.4 µM): 0.314 | relative viability (NCI-H1944; first compound 1.265 µM): 0.232 | relative viability (NCI-H1944; first compound 4 µM): 0.235 | relative viability (NCI-H1975; first compound 0.04 µM): 0.747 | relative viability (NCI-H1975; first compound 0.1265 µM): 0.608 | relative viability (NCI-H1975; first compound 0.4 µM): 0.473 | relative viability (NCI-H1975; first compound 1.265 µM): 0.281 | relative viability (NCI-H1975; first compound 4 µM): 0.342 | relative viability (NCI-H2087; first compound 0.04 µM): 0.503 | relative viability (NCI-H2087; first compound 0.1265 µM): 0.509 | relative viability (NCI-H2087; first compound 0.4 µM): 0.646 | relative viability (NCI-H2087; first compound 1.265 µM): 0.381 | relative viability (NCI-H2087; first compound 4 µM): 0.297 | relative viability (NCI-H2342; first compound 0.04 µM): 0.5 | relative viability (NCI-H2342; first compound 0.1265 µM): 0.501 | relative viability (NCI-H2342; first compound 0.4 µM): 0.476 | relative viability (NCI-H2342; first compound 1.265 µM): 0.313 | relative viability (NCI-H2342; first compound 4 µM): 0.295 | relative viability (NCI-H358; first compound 0.04 µM): 0.509 | relative viability (NCI-H358; first compound 0.1265 µM): 0.58 | relative viability (NCI-H358; first compound 0.4 µM): 0.604 | relative viability (NCI-H358; first compound 1.265 µM): 0.406 | relative viability (NCI-H358; first compound 4 µM): 0.37 | relative viability (NCI-H596; first compound 0.04 µM): 0.618 | relative viability (NCI-H596; first compound 0.1265 µM): 0.499 | relative viability (NCI-H596; first compound 0.4 µM): 0.367 | relative viability (NCI-H596; first compound 1.265 µM): 0.326 | relative viability (NCI-H596; first compound 4 µM): 0.321 | relative viability (NCI-H650; first compound 0.04 µM): 0.363 | relative viability (NCI-H650; first compound 0.1265 µM): 0.306 | relative viability (NCI-H650; first compound 0.4 µM): 0.273 | relative viability (NCI-H650; first compound 1.265 µM): 0.151 | relative viability (NCI-H650; first compound 4 µM): 0.146 | relative viability (NCI-H661; first compound 0.04 µM): 0.75 | relative viability (NCI-H661; first compound 0.1265 µM): 0.709 | relative viability (NCI-H661; first compound 0.4 µM): 0.781 | relative viability (NCI-H661; first compound 1.265 µM): 0.536 | relative viability (NCI-H661; first compound 4 µM): 0.427 | relative viability (NCI-H838; first compound 0.04 µM): 0.749 | relative viability (NCI-H838; first compound 0.1265 µM): 0.327 | relative viability (NCI-H838; first compound 0.4 µM): 0.395 | relative viability (NCI-H838; first compound 1.265 µM): 0.237 | relative viability (NCI-H838; first compound 4 µM): 0.174 | relative viability (PC-3 [JPC-3]; first compound 0.04 µM): 1.1 | relative viability (PC-3 [JPC-3]; first compound 0.1265 µM): 0.992 | relative viability (PC-3 [JPC-3]; first compound 0.4 µM): 1.05 | relative viability (PC-3 [JPC-3]; first compound 1.265 µM): 0.66 | relative viability (PC-3 [JPC-3]; first compound 4 µM): 0.385 | relative viability (SK-MES-1; first compound 0.04 µM): 0.671 | relative viability (SK-MES-1; first compound 0.1265 µM): 0.606 | relative viability (SK-MES-1; first compound 0.4 µM): 0.385 | relative viability (SK-MES-1; first compound 1.265 µM): 0.208 | relative viability (SK-MES-1; first compound 4 µM): 0.209

From the supplement of paper PMC10307832
